Data reported in US11766430B2, “Methods of using a phenoxypropylamine compound to treat pain” (Minerva Neurosciences, Inc., priority 2018, dated 2023).
“And” between values parts separate entries of the source, which are not always exact repeats. Equal values may be shown once.

Test system: peripheral mononeuropathy (Bennett model) in rats
Assay: Peripheral mononeuropathy (Bennett model, chronic constriction injury), paw pressure test (Example 3)
Type: in vivo, male Sprague-Dawley rats
Settings: for paw withdrawal threshold, control paw, Mean: n = 10; for Nociceptive threshold, control paw (mean ± s.e.m.): T0 (14 days after surgery, before dosing)
Protocol: The model of Chronic Constriction Injury (CCI) is based on a discrete peripheral nerve injury and can be related to post-traumatic/postsurgical neuropathic pain experienced by patients (Bennett, G. J. and Xie, Y. K., A peripheral mononeuropathy in rat that produces disorders of pain sensation like those seen in man, Pain, 1988(33):87-107). Unilateral peripheral mononeuropathy was induced by loose ligation of the rat the sciatic nerve of the right hindpaw in anaesthetized rats (xylazine 10 mg/kg i.p., ketamine 60 mg/kg i.p.). The common sciatic nerve was exposed at the level of the middle of the thigh by blunt dissection through the biceps femoris. Proximal to the sciatic trifurcation, four ligatures were tied loosely around it with about 1 mm spacing. Great care was taken to tie the ligatures, such that the diameter of the nerve was seen to be just barely constricted.
Fourteen days later, static mechanical hyperalgesia is assessed using the Paw pressure test (Randall, L. O. and Selitto, J. J., A method for measurement of analgesic activity on inflamed tissue, Arch Int Pharmacodyn, 1957(111):409-419). This test requires the application of an increasing pressure on the hind paws between a flat surface and a blunt pointer. This test is usually used with animals with one hindpaw inflamed by an injection or injured by ligation, and one normal hindpaw, to evaluate drugs for analgesic action. The apparatus exerts a steadily increasing force and reaction threshold is determined as the pressure (g) required to elicit paw withdrawal and/or vocalization. Ugo Basile Analgesimeter (Ugo Basile, Italy) was used for the paw pressure test.
Fourteen days after surgery (D0), nociceptive reaction thresholds (vocalization or paw withdrawal) was measured in order to select animals meeting the inclusion criteria: 20 g<paw withdrawal threshold<240 g (baseline).
Fifty (50) male Sprague-Dawley rats (SPF status, Janvier, France), weighing 133-181 grams the day of surgery were used. Rats were housed in a temperature (20-24° C.) and relative humidity (45%-65%) controlled room and acclimated to an artificial day/night cycle of 12 hours light (6:30 a.m. to 6:30 p.m.)/12 hours darkness. Rats had free access to sterilized tap water and were fed ad libitum with pelleted complete diet (reference A04, S.A.F.E.). Animals were housed 4 per cage (cages Type E) and were acclimated for a period of at least 5 days before any testing. Each rat was identified by tail markings. Based on the SPF status of the animal facilities, there is no reason to expect that contaminants were present in the food, water or bedding, at levels capable of interfering with the results of the tests. […]
Vehicle and MIN-117 were intraperitoneally administered at 10 mL/kg. […] Dosing and testing were performed in a random order by a blinded experimenter except for the morphine-treated group.
Thirty minutes after morphine injection, the antihyperalgesic effect of morphine was evaluated using the paw pressure test. For vehicle and MIN-117 administration, the antihyperalgesic effect of the was evaluated after 120 min. using the paw pressure test.
Results were expressed as: • The paw withdrawal threshold (mean±s.e.m.) in grams of contact pressure for each group, calculated from individual paw withdrawal thresholds • The percentage of variation of the paw withdrawal threshold calculated from the mean value of the vehicle-treated group • The percentage of activity of the compound on mechanical hyperalgesia induced by the sciatic nerve ligation, calculated as follows: […]

[1] = CCI rats, MIN-117 1 mg/kg IP group, Baseline (pre-treatment)
[2] = CCI rats, MIN-117 1 mg/kg IP, 120 min
[3] = CCI rats, MIN-117 1 mg/kg IP, 120 min after treatment, hydrochloride, 1 mg/kg
[4] = CCI rats, MIN-117 3 mg/kg IP group, Baseline (pre-treatment)
[5] = CCI rats, MIN-117 3 mg/kg IP, 120 min
[6] = CCI rats, MIN-117 3 mg/kg IP, 120 min after treatment, hydrochloride, 3 mg/kg
[7] = CCI rats, MIN-117 10 mg/kg IP group, Baseline (pre-treatment)
[8] = CCI rats, MIN-117 10 mg/kg IP, 120 min
[9] = CCI rats, MIN-117 10 mg/kg IP, 120 min after treatment, hydrochloride, 10 mg/kg
[10] = CCI, 1 mg/kg IP, T0 (before dosing)
[11] = CCI, 3 mg/kg IP, T0 (before dosing)
[12] = CCI, 10 mg/kg IP, T0 (before dosing)
[13] = CCI rats, Morphine 3 mg/kg IP [sic], 30 min
[14] = CCI rats, Morphine 3 mg/kg IP [sic], 30 min after treatment
[15] = CCI rats, Morphine 3 mg/kg group, Baseline (pre-treatment)
[16] = CCI, 3 mg/kg SC, T0 (before dosing)

Cc1nnc(-c2cc3c(OC[C@@H](O)CN4CCC(c5ccc(Cl)c(Cl)c5)CC4)cccc3o2)o1.Cl [MIN-117, (2S)-1-(4-(3,4-dichlorophenyl)piperidin-1-yl)-3-((2-(5-methyl-1,3,4-oxadiazol-2-yl)benzofuran-4-yl)oxy)propan-2-ol hydrochloride]
% variation vs control paw, injured paw [1]: −54% | % variation vs vehicle treated group, injured paw [1]: −6% | paw withdrawal threshold, control paw, Mean [1]: 366 g | % activity on mechanical hyperalgesia, injured paw [2]: 9% | % variation vs control paw, injured paw [2]: −47% | % variation vs pre-drug threshold, injured paw [2]: 10% | % variation vs vehicle treated group, injured paw [2]: 11% | paw withdrawal threshold, control paw, individual rats [3]: 400 g (2×) and 300 g (2×) and 360 g and 320 g (4×) and 440 g | paw withdrawal threshold, injured paw, individual rats [3]: 200 g (3×) and 180 g (3×) and 160 g (3×) and 220 g | paw withdrawal threshold, control paw, Mean (CCI rats, MIN-117 1 mg/kg IP, 120 min after treatment): 348 g | % variation vs control paw, injured paw [4]: −55% | % variation vs vehicle treated group, injured paw [4]: −8% | paw withdrawal threshold, control paw, Mean [4]: 364 g | % activity on mechanical hyperalgesia, injured paw [5]: 29% | % variation vs control paw, injured paw [5]: −40% | % variation vs pre-drug threshold, injured paw [5]: 35% | % variation vs vehicle treated group, injured paw [5]: 34% | paw withdrawal threshold, control paw, individual rats [6]: 440 g and 420 g (2×) and 300 g and 360 g (2×) and 340 g (2×) and 460 g and 280 g | paw withdrawal threshold, injured paw, individual rats [6]: 280 g and 220 g (2×) and 200 g (3×) and 180 g and 240 g (3×) | paw withdrawal threshold, control paw, Mean (CCI rats, MIN-117 3 mg/kg IP, 120 min after treatment): 372 g | % variation vs control paw, injured paw [7]: −55% | % variation vs vehicle treated group, injured paw [7]: −8% | paw withdrawal threshold, control paw, Mean [7]: 368 g | % activity on mechanical hyperalgesia, injured paw [8]: 59% | % variation vs control paw, injured paw [8]: −33% | % variation vs pre-drug threshold, injured paw [8]: 71% | % variation vs vehicle treated group, injured paw [8]: 69% | paw withdrawal threshold, control paw, individual rats [9]: 600 g and 320 g and 440 g (4×) and 400 g and 280 g and 480 g and 360 g | paw withdrawal threshold, injured paw, individual rats [9]: 440 g and 320 g (2×) and 260 g and 220 g and 240 g (4×) and 280 g | paw withdrawal threshold, control paw, Mean (CCI rats, MIN-117 10 mg/kg IP, 120 min after treatment): 420 g | Nociceptive threshold, control paw (mean ± s.e.m.) (CCI, 1 mg/kg IP): 366 ± 16.1 g | % variation vs control paw, injured paw [10]: −54% | % variation vs vehicle-treated group, injured paw [10]: −6% | Nociceptive threshold, injured paw (mean ± s.e.m.) [10]: 168 ± 8.0 g | % variation vs control paw, injured paw (CCI, 1 mg/kg IP, T0 + 120 min): −47% | % variation vs pre-drug threshold, injured paw (CCI, 1 mg/kg IP, T0 + 120 min): 10% | % variation vs vehicle-treated group, injured paw (CCI, 1 mg/kg IP, T0 + 120 min): 11% | Nociceptive threshold, injured paw (mean ± s.e.m.) (CCI, 1 mg/kg IP, T0 + 120 min): 184 ± 6.5 g | Effect on nociceptive threshold vs vehicle-treated group (in words) (CCI, 1 mg/kg i.p., 120 min. after treatment): did not induce any significant increase | Nociceptive threshold, control paw (mean ± s.e.m.) (CCI, 3 mg/kg IP): 364 ± 9.8 g | % variation vs control paw, injured paw [11]: −55% | % variation vs vehicle-treated group, injured paw [11]: −8% | Nociceptive threshold, injured paw (mean ± s.e.m.) [11]: 164 ± 5.8 g | % variation vs control paw, injured paw (CCI, 3 mg/kg IP, T0 + 120 min): −40% | % variation vs pre-drug threshold, injured paw (CCI, 3 mg/kg IP, T0 + 120 min): 35% | % variation vs vehicle-treated group, injured paw (CCI, 3 mg/kg IP, T0 + 120 min): 34% | Nociceptive threshold, injured paw (mean ± s.e.m.) (CCI, 3 mg/kg IP, T0 + 120 min, hydrochloride, 3 mg/kg): 222 ± 9.2 g | Effect on nociceptive threshold vs vehicle-treated group (in words) (CCI, 3 mg/kg i.p., after 120 min.): significant increase | Nociceptive threshold, control paw (mean ± s.e.m.) (CCI, 10 mg/kg IP): 368 ± 16.9 g | % variation vs control paw, injured paw [12]: −55% | % variation vs vehicle-treated group, injured paw [12]: −8% | Nociceptive threshold, injured paw (mean ± s.e.m.) [12]: 164 ± 7.2 g | % variation vs control paw, injured paw (CCI, 10 mg/kg IP, T0 + 120 min): −33% | % variation vs pre-drug threshold, injured paw (CCI, 10 mg/kg IP, T0 + 120 min): 71% | % variation vs vehicle-treated group, injured paw (CCI, 10 mg/kg IP, T0 + 120 min): 69% | Nociceptive threshold, injured paw (mean ± s.e.m.) (CCI, 10 mg/kg IP, T0 + 120 min, hydrochloride, 10 mg/kg): 280 ± 20.9 g | Effect on nociceptive threshold vs vehicle-treated group (in words) (CCI, 10 mg/kg i.p., after 120 min.): significant increase

CN1CC[C@]23c4c5ccc(O)c4O[C@H]2[C@@H](O)C=C[C@H]3[C@H]1C5 [Morphine, reference compound]
% activity on mechanical hyperalgesia, injured paw [13]: 165% | % variation vs control paw, injured paw [13]: −23% | % variation vs pre-drug threshold, injured paw [13]: 159% | paw withdrawal threshold, control paw, individual rats [14]: 680 g (2×) and 640 g (3×) and 600 g (3×) and 560 g and 660 g | paw withdrawal threshold, injured paw, individual rats [14]: 680 g and 600 g (2×) and 480 g (2×) and 560 g and 320 g and 500 g and 240 g and 400 g | paw withdrawal threshold, control paw, Mean [14]: 630 g | % variation vs control paw, injured paw [15]: −49% | % variation vs vehicle treated group, injured paw [15]: 6% | paw withdrawal threshold, control paw, Mean [15]: 372 g | Nociceptive threshold, control paw (mean ± s.e.m.) (CCI, 3 mg/kg SC): 372 ± 20.7 g | % variation vs control paw, injured paw [16]: −49% | % variation vs vehicle-treated group, injured paw [16]: 6% | Nociceptive threshold, injured paw (mean ± s.e.m.) (CCI, 3 mg/kg SC, T0 (before dosing), 3 mg/kg): 188 ± 10.4 g | % variation vs control paw, injured paw (CCI, 3 mg/kg SC, T0 + 30 min): −23% | % variation vs pre-drug threshold, injured paw (CCI, 3 mg/kg SC, T0 + 30 min): 159% | Nociceptive threshold, injured paw (mean ± s.e.m.) (CCI, 3 mg/kg SC, T0 + 30 min, 3 mg/kg): 486 ± 42.8 g | Effect on nociceptive threshold vs baseline pre-treatment (in words) (CCI, 3 mg/kg s.c., 30 min. after the administration): pronounced and significant increase
